According to patent US20220323533A1, “COMPOSITION FOR PREVENTING, INHIBITING OR TREATING INFECTION OF CORONAVIRUS” (priority 2021, published 2022):

Assays:
SARS-CoV-2 = format: cell-based

Compound	IC50 (SARS-CoV-2; SARS-CoV-2 (0.0125 MOI) in Vero cells, 24 hours, N protein immunofluorescence, highest concentration 500 μg/ml, two repeated experiments)	inhibition of infection with SARS-CoV-2 (in words) (SARS-CoV-2; Vero cells, up to 500 μg/ml)	CC50 (Vero cells)
OC[C@H]1NC[C@H](O)[C@@H](O)[C@@H]1O [Comparative Example 2, 1-Deoxynojirimycin]	>500 µg/mL	did not inhibit infection	>500 µg/mL
Propolis [Comparative Example 1]			>500 µg/mL
